Type in all cases: in vivo, human
Assay [1] deals with Six panelists experienced in the evaluation of food and beverages. Briefly: Tasting of sweeteners with and without Zemea USP-FCC propanediol. The settings on record: sweetener with 5 ppm Zemea USP-FCC Propanediol versus without. The source says: Six panelists experienced in the evaluation of food and beverages tasted sweeteners and commercial beverages with and without the addition of Zemea USP-FCC propanediol. The six panelists tasted the products and discussed their perceptions of the flavor. They indicated whether the test or control product in each pair was sweeter, less bitter, and/or less sour.

In assay [2] the test system is 40 untrained panelists. Briefly: Paired comparison test for bitterness, reduced sugar stevia sweetened orange juice. As for the experimental part:
Paired comparison tests for bitterness were conducted on 40 untrained panelists. The reduced sugar stevia sweetened orange juice was used as the control and was prepared with 0.0005% Zemea® USP-FCC (5 ppm) as the test variable. The products were served in 2-ounce soufflé cups labeled with 3-digit codes at refrigerated temperatures. The panelists were asked to identify the sample that was more bitter. Bottled water and unsalted crackers were available for panelists to clear their palates before and during testing.

The test system of assay [3] is panelists. Briefly: Absolute taste threshold of Zemea USP-FCC PDO in water (flash profile, blind tasting). The settings on record: at 690 ppm (FEMA #4753 use limit for beverages). An excerpt: (§1) • 1. Panelists: Recruit at least 5 and preferably 12 staff who has no allergy to the big 8 food allergens. • 2. Prototypes: • a. Freshly made to same age (<1 week if possible) • b. Serve all samples at same size (>1 oz for beverages), and at same temperature (70F for foods, 40F for beverages) • 3. Random coded (3-digit) and random ordered up to 5 samples • 4. Keep to less than 5 samples per panel session. Less than 4 panels/day. • 5. For each panelist, ship (under covid-19): • a. one set of 5 samples • b. one instruction (this page) ballot (attachment 1) and one example for how to fill in (attachment 2) • c. one bottled water (Aquafina or equivalent, no minerals added. Panelist to bring own under covid-19) • 6. […] Describe the panelists how to blind-taste same day upon receipt according to panelists instruction below. • 8. […] Ask each panelist to scan/send a picture of the filled-in ballot to panel leader. Panel leader will issue a “directional analysis” (1 day) as a minimum and may include PCA (3 days) leading to conclusions and recommendations.
(§2) Instruction for Flash Profiling Method panelists: • 1. […] Please taste this set mid-morning (9a-N) or mid-afternoon (2-4p) if possible • 3. Arrange the 5 samples in front of you in any order • 4. For the Flash Profiling Method ballot, fill in today's Date, your Name, and Sample (s) as “project xxx-Round x samples” • 5. […]

Assay [4] concerns Six panelists experienced in the evaluation of food and beverages. Briefly: Screening of Zemea USP-FCC at 5, 20 and 100 ppm in reduced sugar stevia sweetened orange juice. The settings on record: 5 ppm, compared with 20 and 100 ppm and control. An excerpt:
Six panelists experienced in the evaluation of food and beverages screened Zemea® USP-FCC at 5, 20, and 100 ppm in a reduced sugar stevia sweetened orange juice. The reduced sugar stevia sweetened orange juice containing no Zemea® USP-FCC was used as the control.

The test system of assay [5] is panelists. Briefly: Flash profile blind tasting of beverages and bitter substances with Zemea USP-FCC added. The note with it: Zemea added at 5-940 ppm to the beverages and bitter substances of Table 1; blind tasting by N>6.
Description: as §1, §2

Turning to `O=C(CO)C(O)C(O)C(O)CO` (stereo not shown) [Allulose], the Effect entry in assay [1] is “Enhanced sweetness”.

Consider `OC[C@@H](O)[C@@H](O)CO` [Erythritol], for which the Effect result in assay [1] is given as “Enhanced sweetness”.

As for `OC[C@H]1O[C@@](CO)(O[C@H]2O[C@H](CO)[C@@H](O)[C@H](O)[C@H]2O)[C@@H](O)[C@@H]1O` [Sucrose, sucrose], the Effect entry in assay [1] is recorded as “Enhanced sweetness”.

`O=C(CO)[C@@H](O)[C@@H](O)[C@H](O)CO` [Tagatose]: the Effect result in assay [1] was “Enhanced sweetness”.

`OCCCO` [Zemea® USP-FCC Propanediol, 1,3-propanediol]: the “number of 40 untrained panelists who identified the sample as more bitter” value in assay [2] (5 ppm (0.0005%) in stevia-sweetened orange juice, control chosen by 26, one-tailed exact p-value 0.04) came out at 14. The “bitterness versus control containing no Zemea USP-FCC” value in assay [2] (5 ppm added directly to reduced sugar orange juice with stevia, p-value 0.04, one-tailed) is “statistically less bitter”. The “taste of Zemea USP-FCC PDO” value in assay [3] is recorded as “tasteless”. Moreover, the bitterness perception result in assay [4] is recorded as “lowest bitterness perception”. For the same molecule, in assay [5], the “bitterness of individual ingredients and beverages” value was “less bitter”; the “liking of individual ingredients and beverages” value is “more liked”.

Values taken from patent US20240090546A1, “COMPOSITIONS COMPRISING AND METHODS OF USING 1,3-PROPANEDIOL, TO IMPROVE SWEETNESS AND/OR REDUCE BITTERNESS OF SWEETENERS” (Primient Covation LLC, priority 2022, published 2024).
